# Patent US10968222B2, “2-azabicyclo hexane JAK inhibitor compound” (THERAVANCE BIOPHARMA R&D IP, LLC, priority 2018, dated 2021)
# Experiments:
# SYK = target: T1, SYK (Homo sapiens, UniProt P43405); assay: Kinome screen, SYK; format: binding; conditions: screened at 1 μM
# T1 construct: made in house; host or cells: E. coli BL21-derived host (T7 phage) or HEK-293 cells
# Procedure: (§1) Compounds 1 and C-1 were screened against other kinases to evaluate their selectivity profile.
# (§2) Kinase-tagged T7 phage strains were grown in parallel in 24-well blocks in an E. coli host derived from the BL21 strain. E. coli were grown to log-phase and infected with T7 phage from a frozen stock (multiplicity of infection=0.4) and incubated with shaking at 32° C. until lysis (90-150 minutes). The lysates were centrifuged (6,000×g) and filtered (0.2 μm) to remove cell debris. The remaining kinases were produced in HEK-293 cells and subsequently tagged with DNA for qPCR detection.
# (§3) Streptavidin-coated magnetic beads were treated with biotinylated small molecule ligands for 30 minutes at room temperature to generate affinity resins for kinase assays. The liganded beads were blocked with excess biotin and washed with blocking buffer (SeaBlock (Pierce), 1% BSA, 0.05% Tween 20, 1 mM DTT) to remove unbound ligand and to reduce non-specific phage binding. Binding reactions were assembled by combining kinases, liganded affinity beads, and test compounds in 1× binding buffer (20% SeaBlock, 0.17×PBS, 0.05% Tween 20, 6 mM DTT). Test compounds were prepared as 40× stocks in 100% DMSO and directly diluted into the assay. All reactions were performed in polypropylene 384-well plates in a final volume of 0.04 ml. […] The kinase concentration in the eluates was measured by qPCR. […]
# [1] = tested on: IL-6 induced pSTAT3 in rat retina/choroid; assay: Pharmacodynamic assay: inhibition of IL6-induced pSTAT3 in rats; format: in vivo; conditions: rat retina/choroid homogenates; 45 μg intravitreal dose; one hour after injection
# Procedure: The ability of a single intravitreal administration of test compound to inhibit IL-6 induced pSTAT3 was measured in rat retina/choroid homogenates.
# A solution formulation was prepared by dissolving compound 1 in 1% HPMC E5+15% HPβCD, pH7 to attain a target concentration of […]. Female Lewis rats were intravitreally (IVT) dosed (5 μL per eye) with either the vehicle, vehicle plus rat IL-6 (Peprotech; 0.5 μg), or a combination of IL-6 plus compound (0.5 μg IL-6 and 45 μg compound 1). Ocular tissues were dissected one hour after the IVT injection. The retina/choroid tissues were homogenized and pSTAT3 levels were measured using an AlphaLisa (PerkinElmer). The percent inhibition of IL-6-induced pSTAT3 was calculated in comparison to the vehicle and IL-6 groups.
# SLK = target: T2, SLK (Homo sapiens, UniProt Q9H2G2); assay: Kinome screen, SLK; format: binding; conditions: screened at 1 μM
# T2 construct: made in house; host or cells: E. coli BL21-derived host (T7 phage) or HEK-293 cells
# Procedure: as §1, §2, §3
# [2] = tested on: IL-2/anti-CD3 stimulated STAT5 phosphorylation in CD4+ T cells in human PBMCs; assay: Inhibition of IL-2 stimulated pSTAT5 in CD4+ T cells; format: cell-based; conditions: 0.5 h, 30 min stimulation, flow cytometry, read-out: pIC50, inhibition of IL-2 stimulated pSTAT5 in CD4+ T cells (converted)
# Procedure: The potency of the test compound for inhibition of interleukin-2 (IL-2)/anti-CD3 stimulated STAT5 phosphorylation was measured in CD4-positive (CD4+) T cells in human peripheral blood mononuclear cells (PBMCs) isolated from human whole blood (Stanford Blood Center) using flow cytometry. Because IL-2 signals through JAK, this assay provides a measure of JAK cellular potency.
# CD4+ T cells were identified using a […] (PE) conjugated anti-CD4 antibody (Clone RPA-T4, BD Biosciences), while an Alexa Fluor 647 conjugated anti-pSTAT5 antibody (pY694, Clone 47, BD Biosciences) was used to detect STAT5 phosphorylation. […]
# (2) After cytokine stimulation, cells were fixed with pre warmed fix solution (200 μL; BD Biosciences) for 10 min at 37° C., 5% CO2, washed twice with DPBS buffer (1 mL, Life Technologies), and resuspended in ice cold Perm Buffer III (1000 μL, BD Biosciences) for 30 min at 4° C. […] After incubation, cells were washed twice in FACS buffer before being analyzed using a LSRII flow cytometer (BD Biosciences). To determine the inhibitory potency of the test compound in response to IL-2/anti-CD3, the median fluorescent intensity (MFI) of pSTAT5 was measured in CD4+ T cells. IC50 values were determined from analysis of the inhibition curves of MFI vs compound concentration.
# Data are expressed as pIC50 (negative decadic logarithm IC50) values.
# PLK4 = target: T3, PLK4 (Homo sapiens, UniProt O00444); assay: Kinome screen, PLK4; format: binding; conditions: screened at 1 μM
# T3 construct: made in house; host or cells: E. coli BL21-derived host (T7 phage) or HEK-293 cells
# Procedure: as §1, §2, §3
# JAK3 = target: T4, JAK3 (Homo sapiens, UniProt P52333); assay: Biochemical JAK kinase assay (LanthaScreen), JAK3; conditions: converted from pIC50 by Cheng-Prusoff; 1.6 μM ATP; read-out: JAK 3 pKi (converted)
# T4 construct: GST; purchased Life Technologies
# Procedure: A panel of four LanthaScreen JAK biochemical assays (JAK1, 2, 3 and Tyk2) were carried in a common kinase reaction buffer (50 mM HEPES, pH 7.5, 0.01% Brij-35, 10 mM MgCl2, and 1 mM EGTA). Recombinant GST-tagged JAK enzymes and a GFP-tagged STAT1 peptide substrate were obtained from Life Technologies.
# Serially diluted compound was pre-incubated with each of the four JAK enzymes and the substrate in white 384-well microplates (Corning) at ambient temperature for 1 h. ATP was subsequently added to initiate the kinase reactions in 10 μL total volume, with 1% DMSO. […] The plates were allowed to incubate at ambient temperature for 1 h before being read on the EnVision reader (Perkin Elmer). Emission ratio signals (520 nm/495 nm) were recorded and utilized to calculate the percent inhibition values based on DMSO and background controls.
# For dose-response analysis, percent inhibition data were plotted vs. compound concentrations, and IC50 values were determined from a 4-parameter robust fit model with the Prism software (GraphPad Software). Results were expressed as pIC50 (negative logarithm of IC50) and subsequently converted to pKi (negative logarithm of dissociation constant, Ki) using the Cheng-Prusoff equation.
# T4 sequence (P52333 whole entry): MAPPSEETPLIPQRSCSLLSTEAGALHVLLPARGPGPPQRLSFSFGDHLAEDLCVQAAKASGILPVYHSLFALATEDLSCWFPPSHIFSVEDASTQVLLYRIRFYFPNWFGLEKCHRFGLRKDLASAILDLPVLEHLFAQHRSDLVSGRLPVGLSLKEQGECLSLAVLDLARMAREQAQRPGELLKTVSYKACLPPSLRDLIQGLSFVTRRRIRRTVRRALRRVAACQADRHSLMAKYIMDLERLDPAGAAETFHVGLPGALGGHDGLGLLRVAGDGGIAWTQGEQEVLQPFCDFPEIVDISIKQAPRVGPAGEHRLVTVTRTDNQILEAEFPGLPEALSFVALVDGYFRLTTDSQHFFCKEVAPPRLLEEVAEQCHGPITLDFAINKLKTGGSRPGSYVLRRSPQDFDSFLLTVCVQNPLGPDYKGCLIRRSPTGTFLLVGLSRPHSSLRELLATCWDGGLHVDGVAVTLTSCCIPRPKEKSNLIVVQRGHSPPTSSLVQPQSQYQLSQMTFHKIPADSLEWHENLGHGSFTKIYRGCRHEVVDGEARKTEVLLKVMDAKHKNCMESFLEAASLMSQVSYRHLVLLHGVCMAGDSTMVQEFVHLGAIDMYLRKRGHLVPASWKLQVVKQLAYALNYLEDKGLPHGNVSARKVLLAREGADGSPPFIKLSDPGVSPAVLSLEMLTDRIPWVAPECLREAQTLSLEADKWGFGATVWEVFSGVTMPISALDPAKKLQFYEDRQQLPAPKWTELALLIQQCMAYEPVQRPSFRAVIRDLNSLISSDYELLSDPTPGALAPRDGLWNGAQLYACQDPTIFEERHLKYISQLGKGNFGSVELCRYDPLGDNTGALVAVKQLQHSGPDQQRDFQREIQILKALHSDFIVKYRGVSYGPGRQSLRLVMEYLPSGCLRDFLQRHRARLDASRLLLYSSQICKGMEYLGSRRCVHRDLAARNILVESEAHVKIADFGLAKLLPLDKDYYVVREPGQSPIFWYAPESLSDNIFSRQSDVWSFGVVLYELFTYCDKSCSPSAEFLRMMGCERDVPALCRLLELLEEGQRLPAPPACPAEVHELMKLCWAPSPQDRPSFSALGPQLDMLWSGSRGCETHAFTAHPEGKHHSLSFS
# T2 sequence (Q9H2G2 whole entry): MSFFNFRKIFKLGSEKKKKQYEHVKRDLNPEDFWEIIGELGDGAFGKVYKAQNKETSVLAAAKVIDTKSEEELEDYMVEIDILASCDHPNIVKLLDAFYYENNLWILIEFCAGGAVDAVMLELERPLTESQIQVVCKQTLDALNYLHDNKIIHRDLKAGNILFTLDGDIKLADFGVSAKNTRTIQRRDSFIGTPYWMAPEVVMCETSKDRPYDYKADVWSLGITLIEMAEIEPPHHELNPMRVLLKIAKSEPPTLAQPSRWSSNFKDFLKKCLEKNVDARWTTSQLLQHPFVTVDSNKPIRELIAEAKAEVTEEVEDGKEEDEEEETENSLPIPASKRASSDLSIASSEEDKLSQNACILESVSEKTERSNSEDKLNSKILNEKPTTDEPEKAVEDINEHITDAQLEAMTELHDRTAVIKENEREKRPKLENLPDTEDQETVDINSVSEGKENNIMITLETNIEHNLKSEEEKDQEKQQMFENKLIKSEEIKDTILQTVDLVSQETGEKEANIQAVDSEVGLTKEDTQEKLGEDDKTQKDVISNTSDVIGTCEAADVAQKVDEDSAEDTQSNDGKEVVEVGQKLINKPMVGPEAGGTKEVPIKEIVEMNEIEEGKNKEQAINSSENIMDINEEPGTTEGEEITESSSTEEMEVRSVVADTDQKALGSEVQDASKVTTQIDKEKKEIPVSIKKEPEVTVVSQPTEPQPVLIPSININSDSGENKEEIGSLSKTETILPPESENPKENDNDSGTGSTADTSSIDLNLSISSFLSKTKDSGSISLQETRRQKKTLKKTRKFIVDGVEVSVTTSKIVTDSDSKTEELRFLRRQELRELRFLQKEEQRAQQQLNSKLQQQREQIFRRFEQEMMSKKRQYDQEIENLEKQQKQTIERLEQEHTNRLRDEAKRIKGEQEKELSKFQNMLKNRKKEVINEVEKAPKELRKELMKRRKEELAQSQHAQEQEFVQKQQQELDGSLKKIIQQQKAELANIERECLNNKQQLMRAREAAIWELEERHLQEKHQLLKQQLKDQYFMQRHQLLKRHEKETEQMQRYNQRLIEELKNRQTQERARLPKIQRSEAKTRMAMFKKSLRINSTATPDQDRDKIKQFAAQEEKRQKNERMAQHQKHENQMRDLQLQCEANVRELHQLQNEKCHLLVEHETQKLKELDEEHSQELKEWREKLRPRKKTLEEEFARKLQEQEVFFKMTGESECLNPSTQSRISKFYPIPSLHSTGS
# T3 sequence (O00444 whole entry): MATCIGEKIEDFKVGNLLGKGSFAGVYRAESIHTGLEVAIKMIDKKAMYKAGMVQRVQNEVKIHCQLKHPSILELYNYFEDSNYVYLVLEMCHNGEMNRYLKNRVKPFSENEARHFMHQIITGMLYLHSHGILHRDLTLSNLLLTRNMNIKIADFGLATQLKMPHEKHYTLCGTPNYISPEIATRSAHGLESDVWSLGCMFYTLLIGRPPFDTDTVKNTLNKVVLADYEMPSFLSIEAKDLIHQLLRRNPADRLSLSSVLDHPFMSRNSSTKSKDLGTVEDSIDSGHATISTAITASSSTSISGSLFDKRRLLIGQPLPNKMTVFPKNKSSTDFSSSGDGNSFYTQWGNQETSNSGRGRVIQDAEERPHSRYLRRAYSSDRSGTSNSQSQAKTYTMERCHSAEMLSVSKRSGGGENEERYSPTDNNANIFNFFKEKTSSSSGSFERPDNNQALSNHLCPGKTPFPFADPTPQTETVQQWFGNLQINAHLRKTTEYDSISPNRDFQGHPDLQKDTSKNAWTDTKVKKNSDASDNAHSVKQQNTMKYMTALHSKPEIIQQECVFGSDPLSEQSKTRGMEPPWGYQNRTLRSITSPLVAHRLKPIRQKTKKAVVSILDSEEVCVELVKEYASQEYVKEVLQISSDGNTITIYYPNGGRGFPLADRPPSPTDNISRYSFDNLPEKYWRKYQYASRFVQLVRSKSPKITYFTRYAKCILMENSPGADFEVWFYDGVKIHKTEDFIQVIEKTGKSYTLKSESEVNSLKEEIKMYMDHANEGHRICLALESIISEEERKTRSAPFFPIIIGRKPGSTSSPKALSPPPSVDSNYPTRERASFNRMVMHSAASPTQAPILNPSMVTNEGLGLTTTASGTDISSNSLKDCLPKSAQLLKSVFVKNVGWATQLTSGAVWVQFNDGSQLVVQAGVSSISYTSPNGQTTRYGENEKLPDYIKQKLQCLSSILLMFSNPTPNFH
structure (smiles),measurement,setting,value
"CCc1cc(O)c(F)cc1-c1cc(F)c2c(-c3nc4c([nH]3)CCN(C(=O)[C@]35C[C@H]3CCN5)C4)n[nH]c2c1 [Compound 1, (1S,5R)-2-azabicyclo[3.1.0]hexan-1-yl(2-(6-(2-ethyl-5-fluoro-4-hydroxyphenyl)-4-fluoro-1H-indazol-3-yl)-6,7-dihydro-3H-imidazo[4,5-c]pyridin-5(4H)-yl)methanone]",inhibition at 1 µM,SYK,44%
same,inhibition of IL-6-induced pSTAT3,[1],84%
same,inhibition at 1 µM,SLK,100%
same,IC50,[2],0.02 µM
same,inhibition at 1 µM,PLK4,39%
same,Ki,JAK3,0.000251 µM
